Columns and labels:
[1] = system: MLM; experiment: Hepatic microsome stability assay, MLM; assay type: in vitro ADME, monkey; details: predicted hepatic clearance
Method: (§1) A hepatic microsome stability assay was conducted to investigate the metabolic disposition of ammoxetine. In this assay, 100 μL of ammoxetine (2.5 μmol/L) was incubated at 37°C with 100 μL of liver microsomes (RLM, DLM, MLM, or HLM) formulated in a 5 mmol/L dipotassium hydrogen phosphate (K2HPO4) buffer at pH 7.4. The concentration of microsomes was 0.5 g/L. To initiate the incubations, 50 μL of NADPH solution preincubated at 37°C was added. […] Parallel triplicate samples were prepared for each time point, including 0, 2, 5, 10, 15, 30, 60, 90, and 120 min. To stop the reactions at each time point, 250 μL of ice-cold precipitating agent (acetonitrile/methanol, 1:1, v/v) containing 500 ng/mL of L-phencynonate (IS) was added to the incubation mixture. The samples were vortexed for 2 min at 4°C and then centrifuged at 13,800×g for 10 min. The supernatants were analyzed using an LC-MS-MS approach. […]
(§2) In Formula 3, t1/2 (min) represents the half-life of ammoxetine in liver microsomes. It is calculated by dividing −0.693 by the resulting slope (k e) obtained from a natural logarithm plot of the remaining concentration of ammoxetine against incubation time. […]

[2] = Hepatic microsome stability assay, MLM; assay type: in vitro ADME, monkey; details: monkey, liver microsomes, pH 7.4; 1 μmol/L, 0.2 g/L microsomes, NADPH
Method: as §1, §2

[3] = system: HLM; experiment: Hepatic microsome stability assay, HLM; assay type: in vitro ADME, human; details: predicted hepatic clearance
Method: as §1, §2

[4] = Hepatic microsome stability assay, HLM; assay type: in vitro ADME, human; details: human, liver microsomes, pH 7.4; 1 μmol/L, 0.2 g/L microsomes, NADPH
Method: as §1, §2

[5] = target: CYP 2D6 (Homo sapiens, UniProt P10635); experiment: Phenotyping with recombinant human CYP 2D6; assay type: in vitro ADME; parameters: purchased BD (Woburn, USA); details: 5 μmol/L, 25 pmol/mL CYP, 1 h
Method: (§3) Ammoxetine (final concentration 5 μmol/L) was incubated with recombinant human CYP 3A4, CYP 1A2, CYP 2C9, CYP 2C19, and CYP 2D6 (final concentration 25 pmol/mL) in a 5 mmol/L K2HPO4 buffer at pH 7.4. The incubations were performed in quintuplicate. NADPH (final concentration 1 mmol/L) was added to initiate the incubation process. The mixture was then incubated at 37°C for 1 h. To stop the reaction, 200 μL of ice-cold acetonitrile/methanol (1:1, v/v) containing 500 ng/mL of L-phencynonate (IS) was added. The samples were vortexed for 2 min and centrifuged at 13,800×g and 4°C for 10 min. The supernatants obtained were analyzed using an LC-MS-MS method. To establish appropriate controls, zero-time controls and blank controls in the absence of NADPH were set up in parallel.

[6] = target: T1, CYP 1A2 (Homo sapiens, UniProt P05177); experiment: Phenotyping with recombinant human CYP 1A2; assay type: in vitro ADME; parameters: purchased BD (Woburn, USA); details: 5 μmol/L, 25 pmol/mL CYP, 1 h
T1 sequence (P05177 1-516): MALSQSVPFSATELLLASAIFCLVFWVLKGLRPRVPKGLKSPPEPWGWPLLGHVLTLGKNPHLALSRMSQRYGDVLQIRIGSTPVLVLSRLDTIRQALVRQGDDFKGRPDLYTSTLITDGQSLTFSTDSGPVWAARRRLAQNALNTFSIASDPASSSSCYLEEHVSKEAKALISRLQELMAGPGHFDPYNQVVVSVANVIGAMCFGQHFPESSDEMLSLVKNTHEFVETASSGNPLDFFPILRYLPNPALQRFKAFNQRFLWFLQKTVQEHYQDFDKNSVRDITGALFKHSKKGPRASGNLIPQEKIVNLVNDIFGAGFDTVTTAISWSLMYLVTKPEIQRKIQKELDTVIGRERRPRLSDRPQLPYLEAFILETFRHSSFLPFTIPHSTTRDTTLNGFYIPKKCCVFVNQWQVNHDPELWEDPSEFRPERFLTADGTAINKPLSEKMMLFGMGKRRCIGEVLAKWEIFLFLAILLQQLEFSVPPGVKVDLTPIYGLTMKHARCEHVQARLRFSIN
Method: as §3

[7] = PPB assay by ultrafiltration, human plasma; assay type: in vitro ADME, humans
Method: The PPB of ammoxetine was determined using the ultrafiltration method. Triplicate samples of rat, dog, or human plasma were spiked with ammoxetine at three final concentrations (50, 150, and 450 ng/mL). The spiked plasma samples were then incubated in a 37°C air-bath shaker for 1 h until equilibrium was reached. After incubation, 400 μL of the plasma samples were transferred to pre-saturated ultrafiltration devices. These devices were subsequently centrifuged at 13,800×g and 20°C for 20 min to separate the unbound ammoxetine. 100 μL of the test samples were taken and mixed with 100 μL of the IS, L-phencynonate (50 ng/mL), and 300 μL of methanol. Following centrifugation at 13,800×g for 10 min, the supernatants were used to determine the total and free concentrations of ammoxetine in the plasma (C t , C f ) using an LC-MS-MS method. The PPB rate (%) of ammoxetine was calculated by dividing (C t −C f ) by C t .

Chain of CYP 2D6 (P10635 whole entry): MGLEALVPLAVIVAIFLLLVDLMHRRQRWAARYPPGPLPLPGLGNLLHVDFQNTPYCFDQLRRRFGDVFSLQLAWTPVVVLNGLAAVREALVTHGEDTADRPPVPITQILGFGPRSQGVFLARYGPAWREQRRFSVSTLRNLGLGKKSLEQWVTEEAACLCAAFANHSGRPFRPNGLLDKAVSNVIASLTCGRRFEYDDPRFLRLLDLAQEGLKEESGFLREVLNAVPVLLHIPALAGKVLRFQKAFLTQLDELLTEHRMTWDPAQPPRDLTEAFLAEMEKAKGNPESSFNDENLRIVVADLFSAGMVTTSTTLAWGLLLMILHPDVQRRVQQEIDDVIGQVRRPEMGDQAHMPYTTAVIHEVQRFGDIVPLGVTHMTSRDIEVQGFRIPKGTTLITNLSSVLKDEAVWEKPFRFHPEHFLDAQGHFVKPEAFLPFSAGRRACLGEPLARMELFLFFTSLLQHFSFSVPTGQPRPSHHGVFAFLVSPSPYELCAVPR

- CL h [1]: 40.73 ± 0.04 mL/min/kg
- half-life at 1 μmol/L [2]: 7.57 ± 0.12 min
- CL h [3]: 9.05 ± 0.13 mL/min/kg
- half-life at 1 μmol/L [4]: 4.16 ± 0.101 h
- Transformation ratio% [5]: 14.09±1.89%
- residuary concentration of ammoxetine, Mean±SD [5]: 5.89±0.13
- Transformation ratio% [6]: 14.04±2.29%
- residuary concentration of ammoxetine, Mean±SD [6]: 5.89±0.16
- fraction unbound at 1 h, 50 ng/mL ([7]; 50 ng/mL, read-out: Percentage of ammoxetine-protein binding rate (%) (converted)): 0.415
- fraction unbound at 1 h, 150 ng/mL ([7]; 150 ng/mL, read-out: Percentage of ammoxetine-protein binding rate (%) (converted)): 0.503
- fraction unbound at 1 h, 450 ng/mL ([7]; 450 ng/mL, read-out: Percentage of ammoxetine-protein binding rate (%) (converted)): 0.45
- fraction unbound at 1 h ([7]; approximate range over 50-450 ng/mL, read-out: PPB rate): 0.4 to 0.5
SMILES: CNCC[C@H](Oc1cccc2c1OCO2)c1cccs1 [ammoxetine]
